Consider 12 molecules from US9040563B2, “Dual inhibitors of farnesyltransferase and geranylgeranyltransferase I” (H. Lee Moffitt Cancer Center and Research Institute, Inc., priority 2010, dated 2015).

For the test, the target named is hFTase (Homo sapiens, UniProt P49354+P49356). As to the kind of experiment: In vitro hFTase inhibition: incorporation of [3H]FPP into recombinant H-Ras-CVLS. The settings on record: GGTase-I IC50 / hFTase IC50. Format: biochemical.
Take `Cn1cnc(S(=O)(=O)N(CCN(Cc2cncn2C)c2ccc(C(=O)O)cc2)Cc2ccccc2)c1` [compound 12, 4-[{2-[Benzyl-(1-methyl-1H-imidazole-4-sulfonyl)-amino]-ethyl}-(3-methyl-3H-imidazol-4-ylmethyl)-amino]-benzoic acid]: the “selectivity (ratio of GGTase-I to FTase IC50s)” value was found to be 48.
As to `Cn1cnc(S(=O)(=O)N(CCCN(Cc2cncn2C)c2ccc(C#N)cc2)Cc2ccccc2)c1` [20a], the “selectivity (ratio of GGTase-I to FTase IC50s)” value is recorded as 11.
Consider `Cn1cnc(S(=O)(=O)N(Cc2ccccc2)[C@@H]2CCC[C@@H]2N(Cc2cncn2C)c2ccc(C#N)cc2)c1` [20b], for which the “selectivity (ratio of GGTase-I to FTase IC50s)” value is given as more than 10.
For “4-[{2-[Benzyl-(1-methyl-1H-imidazole-4-sulfonyl)-amino]-ethyl}-(1-methyl-1H-imidazol-4-ylmethyl)-amino]-benzamide [compound 13]”, the “selectivity (ratio of GGTase-I to FTase IC50s)” value is more than 2.
As to `Cn1cnc(S(=O)(=O)N(CCN(Cc2cncn2C)c2ccc(C#N)nc2)CC2CCN(c3ncccn3)CC2)c1` [19b], the “selectivity (ratio of GGTase-I to FTase IC50s)” value is on record as more than 19.
With `Cn1cnc(S(=O)(=O)N(Cc2ccccc2)[C@H]2CC[C@@H](N(Cc3cncn3C)c3ccc(C#N)cc3)C2)c1` [20d] the figure was more than 15; with `Cn1cnc(S(=O)(=O)N(CCN(Cc2cncn2C)c2ccc(-c3ccccc3)cc2)Cc2ccccc2)c1` [compound 14, [N-Benzyl, N-{2-[(biphenyl-4-yl)-(3-methyl-3H-imidazol-4-ylmethyl)-amino]-ethyl}]1-methyl-1H-imidazole-4-sulfonamide], 0.7; with `Cn1cnc(S(=O)(=O)N(CCN(Cc2cncn2C)c2c(F)c(F)c(C#N)c(F)c2F)CC2CCN(c3ncccn3)CC2)c1` [19h, [N-{2-[(2,3,5,6-Tetrafluoro-4-cyanophenyl)-(3-methyl-3H-imidazol-4-ylmethyl)-amino]-ethyl}, N-{N-(2-pyrimidinyl)-piperidin-4-ylmethyl}]1-methyl-1H-imidazole-4-sulfonamide], 18.
`Cn1cnc(S(=O)(=O)N(CCN(Cc2cncn2C)c2ccc(C#N)cn2)CC2CCN(c3ncccn3)CC2)c1` [19c, [N-{2-[(5-Cyanopyridin-2-yl)-(3-methyl-3H-imidazol-4-ylmethyl)-amino]-ethyl}, N-{N-(2-pyrimidinyl)-piperidin-4-ylmethyl}]1-methyl-1H-imidazole-4-sulfonamide]: the “selectivity (ratio of GGTase-I to FTase IC50s)” value is given as more than 91.
With `Cn1cnc(S(=O)(=O)N(CCN(Cc2cncn2C)c2c(F)cc(C#N)cc2F)CC2CCN(c3ncccn3)CC2)c1` [19g, [N-{2-[(2,6-Difluoro-4-cyanophenyl)-(3-methyl-3H-imidazol-4-ylmethyl)-amino]-ethyl}, N-{N-(2-pyrimidinyl)-piperidin-4-ylmethyl}]1-methyl-1H-imidazole-4-sulfonamide] the figure was more than 34.
For `Cn1cnc(S(=O)(=O)N(CCN(Cc2cncn2C)c2ccc(C#N)c(F)c2)CC2CCN(c3ncccn3)CC2)c1` [19e, [N-{2-[(3-Fluoro-4-cyanophenyl)-(3-methyl-3H-imidazol-4-ylmethyl)-amino]-ethyl}, N-{N-(2-pyrimidinyl)-piperidin-4-ylmethyl}]1-methyl-1H-imidazole-4-sulfonamide], the “selectivity (ratio of GGTase-I to FTase IC50s)” value came to 41.
With `Cn1cnc(S(=O)(=O)N(CCN(Cc2cncn2C)c2ccc(C#N)cc2F)CC2CCN(c3ncccn3)CC2)c1` [compound 19f, [N-{2-[(2-Fluoro-4-cyanophenyl)-(3-methyl-3H-imidazol-4-ylmethyl)-amino]-ethyl}, N-{N-(2-pyrimidinyl)-piperidin-4-ylmethyl}]1-methyl-1H-imidazole-4-sulfonamide] the figure was more than 156.
